Data: ChEMBL document CHEMBL4507260 (2021)

Tests used:
Settings in all cases: Compound concentration 1000.0 nM
[1] = tested on: Tyrosine-protein kinase ABL1 (Homo sapiens), P00519 [F317L]
[2] = molecular target: Atypical kinase COQ8A, mitochondrial (Homo sapiens) (UniProt Q8NI60)
[3] = tested on: ALK tyrosine kinase receptor (Homo sapiens), Q9UM73 [L1196M]
[4] = molecular target: 5'-AMP-activated protein kinase catalytic subunit alpha-2 (Homo sapiens) (UniProt P54646)
[5] = molecular target: BMP-2-inducible protein kinase (Homo sapiens) (UniProt Q9NSY1)
[6] = molecular target: Calcium/calmodulin-dependent protein kinase type II subunit alpha (Homo sapiens) (UniProt Q9UQM7)
[7] = molecular target: Calcium/calmodulin-dependent protein kinase type II subunit beta (Homo sapiens) (UniProt Q13554)
[8] = molecular target: Cyclin-dependent kinase 4 (Homo sapiens) (UniProt P11802)
[9] = molecular target: Dual specificity protein kinase CLK3 (Homo sapiens) (UniProt P49761)
[10] = molecular target: Macrophage colony-stimulating factor 1 receptor (Homo sapiens) (UniProt P07333)
Sequence of Macrophage colony-stimulating factor 1 receptor (Homo sapiens) (P07333 whole entry): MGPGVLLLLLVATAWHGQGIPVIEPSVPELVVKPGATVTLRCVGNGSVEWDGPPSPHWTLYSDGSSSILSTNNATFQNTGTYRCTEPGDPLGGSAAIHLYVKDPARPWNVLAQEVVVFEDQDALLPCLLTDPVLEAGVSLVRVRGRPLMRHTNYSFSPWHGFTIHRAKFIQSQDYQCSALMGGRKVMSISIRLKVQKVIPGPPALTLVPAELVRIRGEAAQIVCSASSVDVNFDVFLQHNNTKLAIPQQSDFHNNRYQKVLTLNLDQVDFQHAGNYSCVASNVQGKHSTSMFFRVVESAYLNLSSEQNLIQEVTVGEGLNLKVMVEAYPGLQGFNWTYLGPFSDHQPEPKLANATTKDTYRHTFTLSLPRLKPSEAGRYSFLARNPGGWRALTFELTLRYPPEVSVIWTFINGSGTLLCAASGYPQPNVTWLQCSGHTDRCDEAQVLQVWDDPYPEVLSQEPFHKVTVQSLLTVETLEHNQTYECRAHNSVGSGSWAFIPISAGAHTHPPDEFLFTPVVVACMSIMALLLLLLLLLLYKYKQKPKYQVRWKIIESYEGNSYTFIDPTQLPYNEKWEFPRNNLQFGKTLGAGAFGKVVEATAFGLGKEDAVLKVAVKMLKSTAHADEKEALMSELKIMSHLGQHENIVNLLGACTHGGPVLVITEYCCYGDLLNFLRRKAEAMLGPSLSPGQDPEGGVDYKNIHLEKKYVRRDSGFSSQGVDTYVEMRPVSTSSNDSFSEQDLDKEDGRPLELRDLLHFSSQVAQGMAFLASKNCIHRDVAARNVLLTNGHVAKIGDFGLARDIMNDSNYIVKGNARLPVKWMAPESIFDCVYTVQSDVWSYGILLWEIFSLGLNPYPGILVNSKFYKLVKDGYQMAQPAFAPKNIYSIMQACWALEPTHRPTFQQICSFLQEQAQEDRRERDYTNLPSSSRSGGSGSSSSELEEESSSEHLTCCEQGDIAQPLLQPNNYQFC

[11] = molecular target: Casein kinase II subunit alpha (Homo sapiens) (UniProt P68400)
[12] = molecular target: Serine/threonine-protein kinase DCLK1 (Homo sapiens) (UniProt O15075)
Sequence of Serine/threonine-protein kinase DCLK1 (Homo sapiens) (O15075 whole entry): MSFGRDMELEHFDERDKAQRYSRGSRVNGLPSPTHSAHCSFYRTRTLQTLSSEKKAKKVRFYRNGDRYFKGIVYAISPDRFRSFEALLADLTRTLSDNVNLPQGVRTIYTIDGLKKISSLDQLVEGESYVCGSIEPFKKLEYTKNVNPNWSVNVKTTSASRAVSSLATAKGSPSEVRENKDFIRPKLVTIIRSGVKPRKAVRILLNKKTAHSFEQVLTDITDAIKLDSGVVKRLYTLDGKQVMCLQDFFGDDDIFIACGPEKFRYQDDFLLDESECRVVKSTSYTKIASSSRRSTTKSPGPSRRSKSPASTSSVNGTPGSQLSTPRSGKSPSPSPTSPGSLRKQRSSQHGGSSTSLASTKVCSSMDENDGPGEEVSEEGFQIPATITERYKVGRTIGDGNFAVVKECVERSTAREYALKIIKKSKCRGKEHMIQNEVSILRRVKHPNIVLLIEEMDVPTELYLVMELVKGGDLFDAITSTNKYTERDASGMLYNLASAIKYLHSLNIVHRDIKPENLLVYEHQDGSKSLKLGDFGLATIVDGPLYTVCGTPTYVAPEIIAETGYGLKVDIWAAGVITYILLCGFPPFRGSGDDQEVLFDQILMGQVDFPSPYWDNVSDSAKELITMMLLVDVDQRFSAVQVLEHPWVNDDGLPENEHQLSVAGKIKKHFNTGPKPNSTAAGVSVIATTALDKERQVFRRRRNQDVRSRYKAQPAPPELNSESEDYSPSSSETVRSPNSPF

[13] = tested on: Epidermal growth factor receptor (Homo sapiens), P00533 [UNDEFINED MUTATION]
[14] = molecular target: Ephrin type-A receptor 7 (Homo sapiens) (UniProt Q15375)
[15] = molecular target: Ephrin type-B receptor 3 (Homo sapiens) (UniProt P54753)
Sequence of Ephrin type-B receptor 3 (Homo sapiens) (P54753 whole entry): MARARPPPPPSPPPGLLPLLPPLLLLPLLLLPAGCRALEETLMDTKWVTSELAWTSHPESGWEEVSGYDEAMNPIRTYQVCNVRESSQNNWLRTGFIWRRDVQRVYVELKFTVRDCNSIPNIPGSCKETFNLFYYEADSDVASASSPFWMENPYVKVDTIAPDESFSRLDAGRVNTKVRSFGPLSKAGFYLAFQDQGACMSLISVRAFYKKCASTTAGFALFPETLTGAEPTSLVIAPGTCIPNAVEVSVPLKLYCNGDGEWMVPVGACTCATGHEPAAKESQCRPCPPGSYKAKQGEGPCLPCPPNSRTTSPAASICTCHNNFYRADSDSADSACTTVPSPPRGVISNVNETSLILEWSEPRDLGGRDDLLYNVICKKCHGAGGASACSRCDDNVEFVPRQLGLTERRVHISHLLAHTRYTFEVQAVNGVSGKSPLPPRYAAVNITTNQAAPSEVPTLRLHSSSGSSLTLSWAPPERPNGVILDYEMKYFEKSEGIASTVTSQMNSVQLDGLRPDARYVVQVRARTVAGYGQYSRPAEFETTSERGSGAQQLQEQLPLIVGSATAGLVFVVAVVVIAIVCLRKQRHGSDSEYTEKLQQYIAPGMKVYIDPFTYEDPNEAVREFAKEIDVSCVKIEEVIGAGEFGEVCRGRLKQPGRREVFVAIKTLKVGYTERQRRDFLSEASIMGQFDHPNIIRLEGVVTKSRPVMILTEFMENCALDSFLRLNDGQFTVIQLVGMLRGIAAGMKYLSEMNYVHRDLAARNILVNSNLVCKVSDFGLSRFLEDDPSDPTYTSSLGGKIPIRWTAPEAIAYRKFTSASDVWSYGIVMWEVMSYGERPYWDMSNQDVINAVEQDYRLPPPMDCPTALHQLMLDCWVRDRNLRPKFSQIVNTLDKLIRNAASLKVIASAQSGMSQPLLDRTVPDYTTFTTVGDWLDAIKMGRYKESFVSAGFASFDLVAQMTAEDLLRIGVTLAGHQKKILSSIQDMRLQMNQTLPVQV

[16] = molecular target: Fibroblast growth factor receptor 2 (Homo sapiens) (UniProt P21802)
[17] = tested on: Receptor-type tyrosine-protein kinase FLT3 (Homo sapiens), P36888 [K663Q]
[18] = tested on: Receptor-type tyrosine-protein kinase FLT3 (Homo sapiens), P36888 [N841I]
[19] = molecular target: Beta-adrenergic receptor kinase 1 (Homo sapiens) (UniProt P25098)
[20] = molecular target: Serine/threonine-protein kinase haspin (Homo sapiens) (UniProt Q8TF76)
[21] = molecular target: Insulin receptor-related protein (Homo sapiens) (UniProt P14616)
[22] = tested on: Mast/stem cell growth factor receptor Kit (Homo sapiens), P10721 [D816H]
[23] = molecular target: Mitogen-activated protein kinase kinase kinase 2 (Homo sapiens) (UniProt Q9Y2U5)
[24] = molecular target: Serine/threonine-protein kinase MARK2 (Homo sapiens) (UniProt Q7KZI7)
[25] = molecular target: Dual specificity mitogen-activated protein kinase kinase 1 (Homo sapiens) (UniProt Q02750)
[26] = molecular target: Dual specificity mitogen-activated protein kinase kinase 3 (Homo sapiens) (UniProt P46734)
[27] = molecular target: Dual specificity mitogen-activated protein kinase kinase 5 (Homo sapiens) (UniProt Q13163)
[28] = molecular target: Tyrosine-protein kinase Mer (Homo sapiens) (UniProt Q12866)
[29] = molecular target: Dual specificity mitogen-activated protein kinase kinase 7 (Homo sapiens) (UniProt O14733)
[30] = molecular target: Serine/threonine-protein kinase 4 (Homo sapiens) (UniProt Q13043)
[31] = molecular target: Macrophage-stimulating protein receptor (Homo sapiens) (UniProt Q04912)
[32] = molecular target: Myosin light chain kinase 2, skeletal/cardiac muscle (Homo sapiens) (UniProt Q9H1R3)
Sequence of Myosin light chain kinase 2, skeletal/cardiac muscle (Homo sapiens) (Q9H1R3 whole entry): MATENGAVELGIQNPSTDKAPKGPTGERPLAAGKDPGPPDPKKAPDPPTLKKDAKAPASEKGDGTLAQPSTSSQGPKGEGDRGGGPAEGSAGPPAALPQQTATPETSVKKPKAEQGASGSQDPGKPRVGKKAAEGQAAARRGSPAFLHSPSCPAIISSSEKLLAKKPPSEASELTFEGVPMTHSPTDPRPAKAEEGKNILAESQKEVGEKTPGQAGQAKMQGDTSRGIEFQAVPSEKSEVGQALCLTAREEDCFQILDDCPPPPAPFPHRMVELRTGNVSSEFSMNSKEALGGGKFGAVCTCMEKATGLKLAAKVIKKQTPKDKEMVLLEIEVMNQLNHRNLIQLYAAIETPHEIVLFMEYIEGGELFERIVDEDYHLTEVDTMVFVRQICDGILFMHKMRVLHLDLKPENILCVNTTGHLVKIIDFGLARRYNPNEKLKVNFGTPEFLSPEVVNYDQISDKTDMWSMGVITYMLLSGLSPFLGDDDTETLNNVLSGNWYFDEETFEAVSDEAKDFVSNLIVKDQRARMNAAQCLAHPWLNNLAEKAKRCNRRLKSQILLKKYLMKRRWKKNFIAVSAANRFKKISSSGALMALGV

[33] = molecular target: Myosin light chain kinase family member 4 (Homo sapiens) (UniProt Q86YV6)
[34] = molecular target: Cyclin-dependent kinase 17 (Homo sapiens) (UniProt Q00537)
[35] = tested on: Phosphatidylinositol 4,5-bisphosphate 3-kinase catalytic subunit alpha isoform (Homo sapiens), P42336 [C420R]
[36] = tested on: Phosphatidylinositol 4,5-bisphosphate 3-kinase catalytic subunit alpha isoform (Homo sapiens), P42336 [I800L]
[37] = molecular target: Serine/threonine-protein kinase N1 (Homo sapiens) (UniProt Q16512)
[38] = molecular target: Protein-tyrosine kinase 2-beta (Homo sapiens) (UniProt Q14289)
[39] = tested on: Proto-oncogene tyrosine-protein kinase receptor Ret (Homo sapiens), P07949 [V804M]
Sequence of Proto-oncogene tyrosine-protein kinase receptor Ret (Homo sapiens), P07949 [V804M] (P07949 whole entry V804M): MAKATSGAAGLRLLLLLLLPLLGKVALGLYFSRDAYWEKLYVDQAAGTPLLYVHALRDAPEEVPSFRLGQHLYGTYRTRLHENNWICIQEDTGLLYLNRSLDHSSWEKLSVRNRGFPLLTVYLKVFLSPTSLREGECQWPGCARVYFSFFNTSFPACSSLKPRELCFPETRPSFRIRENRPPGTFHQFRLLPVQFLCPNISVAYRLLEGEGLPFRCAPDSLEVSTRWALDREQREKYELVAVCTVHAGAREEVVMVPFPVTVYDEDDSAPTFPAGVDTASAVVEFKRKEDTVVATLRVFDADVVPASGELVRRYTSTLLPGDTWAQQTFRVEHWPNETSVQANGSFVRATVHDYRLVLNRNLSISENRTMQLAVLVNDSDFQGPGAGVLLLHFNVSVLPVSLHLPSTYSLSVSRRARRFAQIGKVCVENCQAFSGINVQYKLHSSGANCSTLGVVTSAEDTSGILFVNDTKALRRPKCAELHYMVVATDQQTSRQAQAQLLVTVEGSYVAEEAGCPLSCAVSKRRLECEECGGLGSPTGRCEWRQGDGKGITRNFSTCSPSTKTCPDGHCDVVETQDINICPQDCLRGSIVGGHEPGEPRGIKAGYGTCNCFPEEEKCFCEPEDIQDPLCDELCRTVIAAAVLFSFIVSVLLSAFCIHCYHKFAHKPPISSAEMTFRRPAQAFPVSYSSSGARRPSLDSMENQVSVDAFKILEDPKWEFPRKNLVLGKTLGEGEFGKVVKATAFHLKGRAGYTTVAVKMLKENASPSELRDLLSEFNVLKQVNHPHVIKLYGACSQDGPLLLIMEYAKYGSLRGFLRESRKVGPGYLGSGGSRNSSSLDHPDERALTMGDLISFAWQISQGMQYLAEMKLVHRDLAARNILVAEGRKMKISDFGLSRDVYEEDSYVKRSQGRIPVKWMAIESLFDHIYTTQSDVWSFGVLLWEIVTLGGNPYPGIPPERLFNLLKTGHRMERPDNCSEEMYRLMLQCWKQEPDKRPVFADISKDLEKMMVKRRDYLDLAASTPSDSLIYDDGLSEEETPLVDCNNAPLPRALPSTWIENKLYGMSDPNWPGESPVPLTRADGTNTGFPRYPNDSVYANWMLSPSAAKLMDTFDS

[40] = molecular target: Receptor-interacting serine/threonine-protein kinase 1 (Homo sapiens) (UniProt Q13546)
[41] = molecular target: Rho-associated protein kinase 2 (Homo sapiens) (UniProt O75116)
[42] = molecular target: Ribosomal protein S6 kinase alpha-5 (Homo sapiens) (UniProt O75582)
[43] = molecular target: Ribosomal protein S6 kinase alpha-1 (Homo sapiens) (UniProt Q15418)
[44] = molecular target: Uncharacterized serine/threonine-protein kinase SBK3 (Homo sapiens) (UniProt P0C264)
[45] = molecular target: Serine/threonine-protein kinase SIK1 (Homo sapiens) (UniProt P57059)

Measured: residual activity

Sequence of 5'-AMP-activated protein kinase catalytic subunit alpha-2 (Homo sapiens) (P54646 whole entry, looked up): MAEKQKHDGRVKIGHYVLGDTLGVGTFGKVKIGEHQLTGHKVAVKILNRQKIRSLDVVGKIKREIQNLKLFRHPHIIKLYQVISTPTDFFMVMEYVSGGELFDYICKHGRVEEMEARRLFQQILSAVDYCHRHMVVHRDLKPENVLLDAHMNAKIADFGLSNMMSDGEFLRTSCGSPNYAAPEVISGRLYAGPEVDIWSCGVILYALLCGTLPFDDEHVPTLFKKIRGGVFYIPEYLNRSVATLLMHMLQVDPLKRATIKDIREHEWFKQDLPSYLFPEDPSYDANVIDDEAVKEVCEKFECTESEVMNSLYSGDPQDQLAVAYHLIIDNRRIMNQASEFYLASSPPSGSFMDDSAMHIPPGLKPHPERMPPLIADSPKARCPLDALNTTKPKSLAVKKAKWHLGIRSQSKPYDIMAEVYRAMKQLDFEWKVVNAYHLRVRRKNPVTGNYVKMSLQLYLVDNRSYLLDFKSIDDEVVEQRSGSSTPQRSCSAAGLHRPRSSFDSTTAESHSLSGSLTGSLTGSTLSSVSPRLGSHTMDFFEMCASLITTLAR

c1ccc(N2CCN(Cc3nc4ccccc4[nH]3)CC2)nc1 [ABT-724]
inactive: [1] 100% | [2] 98% | [3] 97% | [4] 100% | [5] 100% | [6] 100% | [7] 100% | [8] 100% | [9] 100% | [10] 100% | [11] 97% | [12] 100% | [13] 90% | [14] 100% | [15] 100% | [16] 96% | [17] 100% | [18] 100% | [19] 90% | [20] 100% | [21] 97% | [22] 100% | [23] 100% | [24] 100% | [25] 100% | [26] 96% | [27] 83% | [28] 90% | [29] 100% | [30] 100% | [31] 100% | [32] 91% | [33] 97% | [34] 100% | [35] 100% | [36] 78% | [37] 88% | [38] 100% | [39] 100% | [40] 100% | [41] 100% | [42] 85% | [43] 100% | [44] 100% | [45] 100%

CSc1cccnc1N1CCN(Cc2nc3ccccc3[nH]2)CC1 [A-769]
inactive: [1] 100% | [2] 100% | [3] 100% | [4] 100% | [5] 100% | [6] 100% | [7] 100% | [8] 84% | [9] 85% | [10] 73% | [11] 81% | [12] 82% | [13] 100% | [14] 93% | [15] 93% | [16] 100% | [17] 93% | [18] 100% | [19] 93% | [20] 100% | [21] 94% | [22] 100% | [23] 82% | [24] 100% | [25] 79% | [26] 100% | [27] 72% | [28] 80% | [29] 92% | [30] 85% | [31] 100% | [32] 100% | [33] 100% | [34] 100% | [35] 100% | [36] 77% | [37] 100% | [38] 100% | [39] 100% | [40] 100% | [41] 74% | [42] 100% | [43] 100% | [44] 100% | [45] 100%
